Test results reported in patent US20190343873A1, “SEQUENCE-SELECTIVE GENE EXPRESSION REGULATORS” (KYOTO UNIVERSITY, priority 2018, published 2019).

Columns and labels:
[1] = test system: Nuc1 / HeLa nuclear extract; test: HAT reaction-in vitro ChIP-qPCR with HeLa nuclear extract as HAT resource, Nuc1; assay type: biochemical, human; conditions: 100 nM compound; HeLa nuclear extract 2% v/v; FIG. 6
[2] = target: T1, Nuc2 (reconstituted nucleosome with five match sequences for Bi-PIP2) / recombinant human P300 (Homo sapiens, UniProt Q09472); test: HAT reaction-in vitro ChIP-qPCR with recombinant P300, acetylation of Nuc2; assay type: biochemical; conditions: 100 nM compound, mixture of Nuc1 and Nuc2
T1 construct: 10 nM recombinant human P300 (amino acids 965-1810); purchased BPS Bioscience 50071
T1 sequence (Q09472 965-1810): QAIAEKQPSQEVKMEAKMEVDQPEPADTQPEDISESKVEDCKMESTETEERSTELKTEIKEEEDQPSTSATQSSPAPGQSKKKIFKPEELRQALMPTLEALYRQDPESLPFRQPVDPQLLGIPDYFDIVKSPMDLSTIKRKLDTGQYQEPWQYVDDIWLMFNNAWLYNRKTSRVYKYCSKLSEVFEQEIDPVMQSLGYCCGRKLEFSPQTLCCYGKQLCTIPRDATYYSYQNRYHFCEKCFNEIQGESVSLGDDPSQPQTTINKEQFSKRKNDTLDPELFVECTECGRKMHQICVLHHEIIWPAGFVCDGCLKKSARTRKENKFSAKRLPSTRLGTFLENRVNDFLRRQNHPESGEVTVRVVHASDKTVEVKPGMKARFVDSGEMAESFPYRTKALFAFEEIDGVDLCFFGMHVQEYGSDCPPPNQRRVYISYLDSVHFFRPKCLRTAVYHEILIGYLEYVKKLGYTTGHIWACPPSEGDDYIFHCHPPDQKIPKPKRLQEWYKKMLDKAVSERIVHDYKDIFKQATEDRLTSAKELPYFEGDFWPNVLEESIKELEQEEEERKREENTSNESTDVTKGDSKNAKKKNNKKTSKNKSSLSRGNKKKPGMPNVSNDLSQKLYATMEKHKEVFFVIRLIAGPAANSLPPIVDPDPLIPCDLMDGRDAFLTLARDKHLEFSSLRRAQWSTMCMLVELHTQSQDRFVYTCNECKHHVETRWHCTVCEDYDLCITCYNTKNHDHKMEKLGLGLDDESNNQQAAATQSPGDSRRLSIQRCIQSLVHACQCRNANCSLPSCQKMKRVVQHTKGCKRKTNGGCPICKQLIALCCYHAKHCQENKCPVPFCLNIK
Excerpt: (§1) To test sequence-selective histone acetylation by Bi-PIP, a biochemical assay (HAT reaction-in vitro ChIP-qPCR) was established by combining HAT reaction followed by immunoprecipitation utilizing reconstituted nucleosomes as reported previously (Nguyen et al., Nat. Methods 2014, 11, 834-40) and quantitative polymerase chain reaction (qPCR) (FIGS. 2A to 2C).
(§2) Mononucleosomes were reconstituted utilizing a salt-dialysis method from a histone octamer and DNA templates that each have a Widom 601 nucleosome positioning sequence and five PIP-binding sequences: 5′-AACAGTCA-3′ for Bi-PIP1 and 5′-AGCCGCCA-3′ for Bi-PIP2 (FIG. 2A). Gel electrophoresis confirmed that the majority of DNA templates were successfully formed on the nucleosome. […]
(§3) To a HAT reaction (15 μL), 85 μL of an AB buffer (20 mM Tris-HCl, pH 7.5, 50 mM NaCl, 5 mM EDTA) containing 1/500 volume of anti-acetylated H3 (Abcam, ab47915) was added and rotated for 1 hour at room temperature. […] The DNA solution was diluted, and amount of the precipitated each nucleosome was measured by qPCR utilizing SYBR FAST qPCR Kit (Kapa Bioscience) on LightCycler 480 (Roche Diagnostics GmbH) (FIG. 2B). Cp values were determined by the 2nd derivative maximum method and relative […] amount was calculated by the ΔΔCp method. […]

HEK293T cells = test: Transcriptome analysis (microarray) of cells treated with Bi-PIPs; assay type: cell-based, human; conditions: 1 μM, 15 hours; for downregulated transcripts: criteria <−2-fold change and <0.05 P value vs vehicle; for most upregulated protein-coding gene among uniquely activated transcripts: criteria >1.5- or <−1.5-fold change, FIG. 7A; for upregulated transcripts: criteria >2-fold change and <0.05 P value vs vehicle; for change in global gene expression (in words) / transcripts commonly upregulated by both Bi-PIP1 and Bi-PIP2: microarray
Method: Considering the fundamental role of P300/CBP as the transcriptional coactivator to activate gene expression, transcriptome analyses of total RNA extracted from cells (HEK293T cells) treated with Bi-PIPs were performed. […]
HEK293T line was purchased from ATCC and maintained in DMEM (Thermo Fisher Scientific) supplemented with 10% (v/v) fetal bovine serum (FBS, Sigma Aldrich) at 37° C. with 5% CO2. For the Bi-PIP treatment, the cells were seeded on 24 well plates (2×10^5 cells/well). After one day, 1 μM of each Bi-PIP and 4 μM of Endo-Porter (10% polyethylene glycol form, Gene Tools) were added. As a vehicle, 0.1% DMSO (v/v) was used. After 15 hours of Bi-PIP treatment, RNA was extracted using FastGene™ RNA Basic Kit (Nippon Genetics) following manufacture's instruction.
The quality of RNA was checked with Bioanalyzer (Agilent Technologies) using Agilent RNA 6000 Pico Kit (Agilent Technologies). The total RNA was processed by GeneChip WT PLUS Reagent Kit (Affymetrix) and hybridized to Human Gene 2.1 ST Array Strip (Affymetrix) using GeneChip Hybridization, Wash, and Stain Kit (Affymetrix). Fluidics and scanning were conducted in GeneAtlas System (Affymetrix) using GeneChip Hybridization, Wash, and Stain Kit (Affymetrix). Data normalization, summarization and comparison were performed using Transcriptome Analysis Console v4 (Affymetrix).

[3] = target: T2, Nuc1 histones / recombinant human P300 (Homo sapiens, UniProt Q09472); test: HAT reaction followed by LC-MS/MS analysis of histone peptides; assay type: biochemical; conditions: 2.5 μM vs 0 compound, Nuc1 500 nM, P300 50 nM, Ac-CoA 10 μM
T2 construct: 10 nM recombinant human P300 (amino acids 965-1810); purchased BPS Bioscience 50071
T2 sequence (Q09472 965-1810): T1 sequence (Q09472 965-1810)
Method: Histone acetylation with Bi-PIP was directly confirmed by mass spectrometry analysis. After HAT reaction using Nuc1 (500 nM), B PIP1 (0 or 2.5 μM), recombinant human P300 (50 nM) and Ac-CoA (10 μM), the histones were processed through propionylation of unmodified lysine, tryptic digestion, and propionylation of terminal amine. The resulting peptides were analyzed by liquid chromatography-tandem mass spectrometry (LC-MS/MS).

[4] = target: T3, Nuc1 (reconstituted nucleosome with five match sequences for Bi-PIP1) / recombinant human P300 (Homo sapiens, UniProt Q09472); test: HAT reaction-in vitro ChIP-qPCR with recombinant P300, acetylation of Nuc1; assay type: biochemical; conditions: mixture of Nuc1 and Nuc2
T3 construct: 10 nM recombinant human P300 (amino acids 965-1810); purchased BPS Bioscience 50071
T3 sequence (Q09472 965-1810): T1 sequence (Q09472 965-1810)
Excerpt: as §1, §2, §3

| acetylation of Nuc2 (anti-acetylated H3 ChIP-qPCR) ([2]; P300 0, 1, 3, 10, 30, 100 nM, FIG. 3) | acetylation in the N-terminal region of histone H4 (H4K5ac, H4K8ac, H4K12ac) [3] | signal intensity of peptides containing acetyl lysine at the N-terminal tail region of H3 (H3K14ac, H3K18ac, H3K23ac, H3K27ac, H3K36ac) [3] | acetylation of Nuc1 (anti-acetylated H3 ChIP-qPCR) ([4]; 100 nM compound, P300 0, 1, 3, 10, 30, 100 nM, FIG. 3) | acetylation of target nucleosome Nuc1 (anti-acetylated H3 ChIP-qPCR) ([4]; 100 nM each compound, 10 nM P300 (amino acids 965-1810), FIG. 4) | SMILES | acetylation of Nuc1 in nuclear extract [1] | downregulated transcripts (HEK293T cells) | most upregulated protein-coding gene among uniquely activated transcripts (HEK293T cells) | upregulated transcripts (HEK293T cells) | change in global gene expression (in words) (HEK293T cells) | transcripts commonly upregulated by both Bi-PIP1 and Bi-PIP2 (HEK293T cells) | acetylation of Nuc2 (anti-acetylated H3 ChIP-qPCR) ([2]; 10 nM P300 (amino acids 965-1810), FIG. 5) |
| --- | --- | --- | --- | --- | --- | --- | --- | --- | --- | --- | --- | --- |
| acetylation was not induced | acetylation was promoted | increase in the signal intensity | induced intensive acetylation | Nuc1-selective acetylation | Cc1noc(C)c1-c1ccc2c(c1)nc(CCc1ccc(OCCNC(=O)CCCCC(=O)NCCOCCOCC(=O)NCCOCCOCC(=O)Nc3cn(C)c(C(=O)Nc4cc(C(=O)Nc5cc(C(=O)NCCC(=O)Nc6cn(C)c(C(=O)Nc7cc(C(=O)NCCCC(=O)Nc8cc(C(=O)Nc9cc(C(=O)NCCC(=O)Nc%10cn(C)c(C(=O)Nc%11cc(C(=O)Nc%12cc(C(=O)NCCCN(C)C)n(C)c%12)n(C)c%11)n%10)n(C)c9)n(C)c8)n(C)c7)n6)n(C)c5)n(C)c4)n3)cc1)n2CCN1CCOCC1 [Bi-PIP1] | enhanced acetylation of Nuc1 | 258 | NTS | 473 | greater transcriptome changes | 247 |  |
|  |  |  |  |  | Cc1noc(C)c1-c1ccc2c(c1)nc(CCc1ccc(OCCNC(=O)CCCCC(=O)NCCOCCOCC(=O)NCCOCCOCC(=O)Nc3cn(C)c(C(=O)Nc4cn(C)c(C(=O)NCCC(=O)Nc5cn(C)c(C(=O)Nc6cn(C)c(C(=O)Nc7cc(C(=O)NCCCC(=O)Nc8cn(C)c(C(=O)Nc9cc(C(=O)NCCC(=O)Nc%10cn(C)c(C(=O)Nc%11cc(C(=O)Nc%12cc(C(=O)NCCCN(C)C)n(C)c%12)n(C)c%11)n%10)n(C)c9)n8)n(C)c7)n6)n5)n4)n3)cc1)n2CCN1CCOCC1 [Bi-PIP2] |  | 137 | IER5L | 446 | greater transcriptome changes | 247 | selective acetylation of Nuc2 |
